# Biological target: T1, TRPV4 (Homo sapiens, UniProt Q9HBA0)
# T1 construct: HaloTag fused to the N-terminus of human TRPV4, expressed in TRPV4-KO HEK293 cells
# Assay: FLIPR calcium mobilization assay in transfected TRPV4-KO HEK293 cells (agonist dose-response)
# Type: cell-based
# T1 sequence (Q9HBA0 whole entry, the tested form may be a part): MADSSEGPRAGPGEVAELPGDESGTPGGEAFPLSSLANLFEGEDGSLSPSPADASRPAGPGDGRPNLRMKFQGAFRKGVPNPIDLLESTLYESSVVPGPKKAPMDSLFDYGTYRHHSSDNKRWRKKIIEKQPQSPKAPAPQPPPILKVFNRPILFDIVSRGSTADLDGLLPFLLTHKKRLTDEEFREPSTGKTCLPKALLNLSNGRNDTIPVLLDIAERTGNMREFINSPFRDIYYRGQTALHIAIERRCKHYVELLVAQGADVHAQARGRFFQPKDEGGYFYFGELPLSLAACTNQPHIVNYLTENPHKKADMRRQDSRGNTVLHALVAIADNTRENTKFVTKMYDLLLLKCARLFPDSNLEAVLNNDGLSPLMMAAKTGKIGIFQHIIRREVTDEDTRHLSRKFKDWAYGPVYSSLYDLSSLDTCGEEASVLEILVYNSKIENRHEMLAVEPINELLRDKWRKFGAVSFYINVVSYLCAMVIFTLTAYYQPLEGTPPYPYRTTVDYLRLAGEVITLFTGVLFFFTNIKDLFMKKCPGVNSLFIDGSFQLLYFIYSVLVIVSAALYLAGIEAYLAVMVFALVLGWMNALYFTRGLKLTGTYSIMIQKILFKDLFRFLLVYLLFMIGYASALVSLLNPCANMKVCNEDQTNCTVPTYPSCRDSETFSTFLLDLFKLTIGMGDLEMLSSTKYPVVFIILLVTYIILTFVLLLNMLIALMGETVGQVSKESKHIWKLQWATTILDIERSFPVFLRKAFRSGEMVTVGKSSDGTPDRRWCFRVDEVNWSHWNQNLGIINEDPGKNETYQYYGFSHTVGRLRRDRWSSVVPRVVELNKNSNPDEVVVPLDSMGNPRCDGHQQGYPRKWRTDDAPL
structure (smiles),measurement,value
"CC(C)C[C@H](NC(=O)c1cc2ccccc2s1)C(=O)N1CCN(C(=O)[C@H](CO)NS(=O)(=O)c2ccc(Cl)cc2Cl)CC1 [GSK1016790A, N-((1S)-1-{[4-((2S)-2-{[(2,4-dichlorophenyl)sulfonyl]amino}-3-hydroxypropanoyl)-1-piperazinyl]carbonyl}-3-methylbutyl)-1-benzothiophene-2-carboxamide]",EC50,0.026 µM

# Source: PMC8395219, “Comparative Analysis of Single-Molecule Dynamics of TRPV1 and TRPV4 Channels in Living Cells” (International Journal of Molecular Sciences, 2021)
